IC50 and GI50 data for 13 compounds are collected here from publication PMC3662613 (Chemmedchem, 2013).

Read-outs that look alike come from different tables or passages of the source.

Assay [1] addresses p97 ATPase (Homo sapiens, UniProt P55072). The assay is described as follows: p97 ATPase assay. Type of assay: biochemical. Conditions: IC50 ATPase, triplicate, mean ±SD.
Assay [2] relates to SW403. In words: Cytotoxicity / antiproliferative activity. The class given is cell-based. Conditions: Homo sapiens.
The subject of assay [3] is HCT15. In words: Cytotoxicity / antiproliferative activity. The class given is cell-based. As to conditions: Homo sapiens.
Assay [4] relates to ODD-Luc (p97-independent proteasome substrate). The assay is described as follows: ODD-Luc reporter degradation assay, dual reporter HeLa cell line. As to conditions: Homo sapiens, read-out: IC50 ODD-Luc. Type of assay: cell-based.
Where [5] appears, read: SW-403, 24 h, read-out: Cytotoxicity GI50 SW403 24 h.
Where [6] appears, read: SW-403, 72 h, read-out: Cytotoxicity GI50 SW403 72 h.
Setting [7] is: HCT-15, 24 h, read-out: Cytotoxicity GI50 HCT15 24 h.
Where [8] appears, read: HCT-15, 72 h, read-out: Cytotoxicity GI50 HCT15 72 h.

p97 ATPase, sequence (P55072 whole entry): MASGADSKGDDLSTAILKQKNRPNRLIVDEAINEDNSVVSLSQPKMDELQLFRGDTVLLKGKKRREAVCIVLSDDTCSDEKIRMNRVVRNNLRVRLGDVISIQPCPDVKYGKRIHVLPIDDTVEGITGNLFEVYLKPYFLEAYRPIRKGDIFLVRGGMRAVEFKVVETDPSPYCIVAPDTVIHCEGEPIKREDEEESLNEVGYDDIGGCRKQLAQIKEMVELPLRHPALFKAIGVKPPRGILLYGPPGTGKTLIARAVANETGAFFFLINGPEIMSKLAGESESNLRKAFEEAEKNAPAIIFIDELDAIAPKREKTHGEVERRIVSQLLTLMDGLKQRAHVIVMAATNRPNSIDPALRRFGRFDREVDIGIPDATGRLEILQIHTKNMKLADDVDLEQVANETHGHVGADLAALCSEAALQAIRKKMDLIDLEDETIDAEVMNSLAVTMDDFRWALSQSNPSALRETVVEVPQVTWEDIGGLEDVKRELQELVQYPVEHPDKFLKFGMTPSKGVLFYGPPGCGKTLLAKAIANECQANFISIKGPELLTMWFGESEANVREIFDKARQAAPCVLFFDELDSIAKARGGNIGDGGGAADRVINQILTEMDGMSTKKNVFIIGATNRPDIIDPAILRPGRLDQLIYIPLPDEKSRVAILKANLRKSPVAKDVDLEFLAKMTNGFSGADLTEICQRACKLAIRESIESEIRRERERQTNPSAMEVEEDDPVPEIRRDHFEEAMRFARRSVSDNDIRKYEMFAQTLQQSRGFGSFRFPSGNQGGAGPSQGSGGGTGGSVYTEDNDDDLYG

For `c1ccc(Nc2nc(Nc3ccccc3)c3ccccc3n2)cc1` [compound 9, N^2,N^4-Diphenylquinazoline-2,4-diamine], in assay [1], half-maximal inhibition (IC50) required 2600 ± 800 nM.
Regarding `COc1cccc2c(NCc3ccccc3)nc(NCc3ccccc3)nc12` [compound 14, N^2,N^4-Dibenzyl-8-methoxyquinazoline-2,4-diamine], the GI50 (in general, the concentration at which growth is held to half of that of the control) in assay [2] (setting [5]) turned out to be 0.8 ± 0.3 µM; in assay [2] (setting [6]), 0.5 ± 0.2 µM; in assay [3] (setting [7]), 1.1 ± 0.3 µM; in assay [3] (setting [8]) it was 0.8 ± 0.3 µM. The IC50 (usually the concentration needed to halve the response being measured) in assay [4] was 6.5 ± 1.1 µM.
Turning to `c1ccc(CNc2nc(N3CCOc4ccccc43)nc3ccccc23)cc1` [compound 15, 2-(2H-Benzo[b][1,4]oxazin-4(3H)-yl)-N-benzylquinazolin-4-amine], the GI50 amounted to 21 ± 5 µM in assay [2] (setting [5]), 13 ± 4 µM in assay [2] (setting [6]), 24 ± 3 µM in assay [3] (setting [7]) and 10 ± 3 µM in assay [3] (setting [8]). In addition, the IC50 in assay [4] is over 20 µM.
For `c1ccc(CNc2nc(N3CCOc4ccccc43)nc3ccsc23)cc1` [compound 17, 2-(2H-Benzo[b][1,4]oxazin-4(3H)-yl)-N-benzylthieno[3,2-d]pyrimidin-4-amine], the GI50 in assay [2] (setting [5]) turned out to be 18 ± 10 µM; in assay [2] (setting [6]) it was 9.7 ± 3.7 µM; in assay [3] (setting [7]), 37 ± 7 µM; in assay [3] (setting [8]), 16 ± 5 µM. For the same compound, the IC50 in assay [4] stood at 17 ± 2 µM.
The matching figures for `COc1cccc2c(NCc3ccccc3)nc(Nc3nc4ccccc4n3C)nc12` [compound 19, N^4-Benzyl-8-methoxy-N^2-(1-methyl-1H-benzo[d]imidazol-2-yl)quinazoline-2,4-diamine]: 1.7 ± 0.7 µM, 1.4 ± 0.5 µM, 1.7 ± 0.8 µM, 1.4 ± 0.5 µM and 10 ± 2 µM.
In the case of `COc1cccc2c(NCc3ccccc3)nc(-n3c(N)nc4cc(Cl)c(Cl)cc43)nc12` [compound 21, 2-(2-Amino-5,6-dichloro-1H-benzo[d]imidazol-1-yl)-N-benzyl-8-methoxyquinazolin-4-amine], half-maximal inhibition in assay [1] (IC50) was put at 25000 ± 8000 nM.
For the compound `COc1cccc2c(NCc3ccccc3)nc(-n3c(N)nc4c(F)cccc43)nc12` [compound 27, 2-(2-Amino-4-fluoro-1H-benzo[d]imidazol-1-yl)-N-benzyl-8-methoxyquinazolin-4-amine], it took 43 ± 10 nM to reach half-maximal inhibition in assay [1] (IC50).
Still for that read-out and setting: with `COc1cccc2c(NCc3ccccc3)nc(-n3c(N)nc4cccc(F)c43)nc12` [compound 28, 2-(2-Amino-7-fluoro-1H-benzo[d]imidazol-1-yl)-N-benzyl-8-methoxyquinazolin-4-amine] the figure was 500 ± 100 nM; with `COc1cccc2c(NCc3ccccc3)nc(-n3c(N)nc4c(C)cccc43)nc12` [compound 29, 2-(2-Amino-4-methyl-1H-benzo[d]imidazol-1-yl)-N-benzyl-8-methoxyquinazolin-4-amine], 45 ± 6 nM.
Consider `OCCOc1cccc2c(NCc3ccccc3)nc(N3CCOc4ccccc43)nc12` [compound 33, 2-((2-(2H-Benzo[b][1,4]oxazin-4(3H)-yl)-4-(benzylamino)quinazolin-8-yl)oxy)ethanol], for which the GI50 in assay [2] (setting [5]) was found to be 42 ± 9 µM; in assay [2] (setting [6]), 9.4 ± 2.9 µM; in assay [3] (setting [7]), 28 ± 3 µM; in assay [3] (setting [8]), 17 ± 5 µM. Also, in assay [4], the IC50 is over 20 µM.
The matching figures for `COCCOc1cccc2c(NCc3ccccc3)nc(N3CCOc4ccccc43)nc12` [compound 34, 2-(2H-Benzo[b][1,4]oxazin-4(3H)-yl)-N-benzyl-8-(2-methoxyethoxy)quinazolin-4-amine]: 15 ± 7 µM, 7.9 ± 2.7 µM, 12 ± 4 µM, 9 ± 3 µM and 27 ± 5 µM.
As for `CCCCOc1cccc2c(NCc3ccccc3)nc(N3CCOc4ccccc43)nc12` [compound 37, 2-(2H-Benzo[b][1,4]oxazin-4(3H)-yl)-N-benzyl-8-butoxyquinazolin-4-amine], the IC50 in assay [1] came out at 2630 ± 700 nM.
`N#CCOc1cccc2c(NCc3ccccc3)nc(N3CCOc4ccccc43)nc12` [compound 39, 2-((2-(2H-Benzo[b][1,4]oxazin-4(3H)-yl)-4-(benzylamino)quinazolin-8-yl)oxy)acetonitrile] showed an IC50 in assay [1] of 400 ± 80 nM.
